Test results reported in patent US10188622B2, “Use of a composition comprising fish oil and juice for the treatment and/or post treatment of cancer” (Smartfish AS, priority 2013, dated 2019).
Where “and” joins values, the source holds several entries; their conditions need not be identical. Equal values may be shown once.

Test system: MP2 cells co-cultured with NK (IL-2) cells
Assay: Enzymatic caspase-3 assay (CaspACE-3) in co-culture of pancreatic cancer cells and NK cells
Type: cell-based, human
Conditions: 48 hours; for Casp-3, X1 / Casp-3, X2 / Casp-3, X3 / Casp-3, Mean: MP2 cells + NK (IL-2); for Casp-3, X1: experiment X1; for Casp-3, X1 / Casp-3, X2 / Casp-3, X3: RvD1 and DHA 50 nM; for Casp-3, X2: experiment X2; for Casp-3, X3: experiment X3; for Casp-3, Mean: mean of X1-X3; for caspase-3 expression (mean ± 2× standard error): PDAC (MP2) cells co-cultured with NK cells, as stated in text
Procedure: Mia Paca2 (MP2) and L3.6 cells from pancreatic ductal adenocarcinoma so (PDAC) were obtained from T. Donahue, UCLA Surgery and were propagated in Dulbecco's Modified Eagle's Medium (DME) with 10% foetal calf serum. 10,000 cells were plated in each well of 24-well plates and were grown at 37° C. and 24 h to near confluence before testing.
These were isolated from human blood by NK cell isolation kit (Stem cell technologies, Vancouver, Canada). NK cells were activated by treatment with IL-2 or IL2/CD16 as described in Tseng, H. C. et al. “Increased lysis of stem cells but not their differentiated cells by natural killer cells; de-differentiation or reprogramming activates NK cells.” PLOS One 5(7): e11590, 2010.
Composition of the invention (Nutrifriend 2000) containing DHA (1000 mg/200 ml) and EPA (1000 mg/200 ml) was purchased by the company Smartfish AS, Oslo, For use in cell culture, diluted 1:2 with fetal calf serum, sonicated for 30 sec and then diluted 1:100 in DMEM with 10% fetal calf serum.
NK cells were added to MP2 or L3.6 cells at a ratio of 5 NK cells per 1 MP2 cell. The co-cultures were treated with Smartfish. Addition of DHA (50 nM) or resolvin D1 (RvD1 from Cayman Chemical company, Ann Arbor, Mich., 50 nM) were tested as controls. The co-cultures is were grown for 48 hours, harvested and tested by the caspase-3 assay.
The enzymatic caspase-3 assay was performed by the CaspACE-3 assay G-7351 (Promega Corporation, Madison, Wis.) according to the manufacturer's instructions.
The data were analyzed by comparing the range of means (mean+/−2× standard error of mean). When indicated the exact value was calculated by the Fisher exact test.

Structure (SMILES)	Casp-3, X1 [µM]	Casp-3, X2 [µM]	Casp-3, X3 [µM]	Casp-3, Mean [µM]	caspase-3 expression (mean ± 2× standard error)	caspase-3 expression (mean ± 2× standard error) (listed as resolvinD1) [µM]
CC/C=C\C[C@H](O)/C=C/C=C\C=C\C=C\[C@@H](O)[C@@H](O)C/C=C\CCC(=O)O [RvD1, resolvin D1]	6	6.3	6.6	6.3	6.3 ± 0.31 µM	6.3 ± 0.31
CC/C=C\C/C=C\C/C=C\C/C=C\C/C=C\C/C=C\CCC(=O)O [DHA, docosahexanoic acid]	5.7	6.6	6	6.1	6.1 µM and 6.1 ± 0.48 µM	
